The record followed here is patent US20230150974A1 (Foghorn Therapeutics Inc., priority 2020, published 2023).

Where only a bound is given, the exact number is not on record here.

One assay has as its target T1, HiBit-BRG1 (Homo sapiens, UniProt P51532).
T1 construct: expressed in transfected cells
Description: HiBit-BRG1 cell-based degradation assay (Nano-Glo HiBiT Lytic Detection). The settings on record: HeLa cells expressing HiBit-BRG1 and LgBit, 24 h; for DC50: read-out: BRG1 HiBit Degradation IC50; for Dmax: read-out: BRG1 HiBit Degradation Maximum (%). An outline of the steps:
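Luminescence from reconstituted NanoBiT luciferase after lytic detection served as read-out of remaining HiBit-BRG1 in stable HeLa cells, which also express LgBit. Cells were seeded at 5000 per well and incubated with compound for 24 h. DMSO and a 2 μM known degrader defined the control range.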
A general note: HiBiT is a short tag that completes a luciferase, so light tracks the accessible tagged protein.

The next assay addresses T2, HiBiT-BRM (Homo sapiens, UniProt P51531).
T2 construct: expressed in transfected cells
As to the kind of experiment: HiBiT-BRM cell-based degradation assay (Nano-Glo HiBiT Lytic Detection). The settings on record: HeLa cells expressing HiBiT-BRM, 24 h; for DC50: read-out: BRM HiBit Degradation IC50. The method in brief:
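HeLa cells stably expressing HiBiT-tagged BRM were treated for 24 h, then lysed with LgBiT-containing Nano-Glo reagent and luminescence read. % degradation scaled between DMSO (high control) and 2 μM reference BRM/BRG1 degrader (low control).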

T1 sequence (P51532 whole entry): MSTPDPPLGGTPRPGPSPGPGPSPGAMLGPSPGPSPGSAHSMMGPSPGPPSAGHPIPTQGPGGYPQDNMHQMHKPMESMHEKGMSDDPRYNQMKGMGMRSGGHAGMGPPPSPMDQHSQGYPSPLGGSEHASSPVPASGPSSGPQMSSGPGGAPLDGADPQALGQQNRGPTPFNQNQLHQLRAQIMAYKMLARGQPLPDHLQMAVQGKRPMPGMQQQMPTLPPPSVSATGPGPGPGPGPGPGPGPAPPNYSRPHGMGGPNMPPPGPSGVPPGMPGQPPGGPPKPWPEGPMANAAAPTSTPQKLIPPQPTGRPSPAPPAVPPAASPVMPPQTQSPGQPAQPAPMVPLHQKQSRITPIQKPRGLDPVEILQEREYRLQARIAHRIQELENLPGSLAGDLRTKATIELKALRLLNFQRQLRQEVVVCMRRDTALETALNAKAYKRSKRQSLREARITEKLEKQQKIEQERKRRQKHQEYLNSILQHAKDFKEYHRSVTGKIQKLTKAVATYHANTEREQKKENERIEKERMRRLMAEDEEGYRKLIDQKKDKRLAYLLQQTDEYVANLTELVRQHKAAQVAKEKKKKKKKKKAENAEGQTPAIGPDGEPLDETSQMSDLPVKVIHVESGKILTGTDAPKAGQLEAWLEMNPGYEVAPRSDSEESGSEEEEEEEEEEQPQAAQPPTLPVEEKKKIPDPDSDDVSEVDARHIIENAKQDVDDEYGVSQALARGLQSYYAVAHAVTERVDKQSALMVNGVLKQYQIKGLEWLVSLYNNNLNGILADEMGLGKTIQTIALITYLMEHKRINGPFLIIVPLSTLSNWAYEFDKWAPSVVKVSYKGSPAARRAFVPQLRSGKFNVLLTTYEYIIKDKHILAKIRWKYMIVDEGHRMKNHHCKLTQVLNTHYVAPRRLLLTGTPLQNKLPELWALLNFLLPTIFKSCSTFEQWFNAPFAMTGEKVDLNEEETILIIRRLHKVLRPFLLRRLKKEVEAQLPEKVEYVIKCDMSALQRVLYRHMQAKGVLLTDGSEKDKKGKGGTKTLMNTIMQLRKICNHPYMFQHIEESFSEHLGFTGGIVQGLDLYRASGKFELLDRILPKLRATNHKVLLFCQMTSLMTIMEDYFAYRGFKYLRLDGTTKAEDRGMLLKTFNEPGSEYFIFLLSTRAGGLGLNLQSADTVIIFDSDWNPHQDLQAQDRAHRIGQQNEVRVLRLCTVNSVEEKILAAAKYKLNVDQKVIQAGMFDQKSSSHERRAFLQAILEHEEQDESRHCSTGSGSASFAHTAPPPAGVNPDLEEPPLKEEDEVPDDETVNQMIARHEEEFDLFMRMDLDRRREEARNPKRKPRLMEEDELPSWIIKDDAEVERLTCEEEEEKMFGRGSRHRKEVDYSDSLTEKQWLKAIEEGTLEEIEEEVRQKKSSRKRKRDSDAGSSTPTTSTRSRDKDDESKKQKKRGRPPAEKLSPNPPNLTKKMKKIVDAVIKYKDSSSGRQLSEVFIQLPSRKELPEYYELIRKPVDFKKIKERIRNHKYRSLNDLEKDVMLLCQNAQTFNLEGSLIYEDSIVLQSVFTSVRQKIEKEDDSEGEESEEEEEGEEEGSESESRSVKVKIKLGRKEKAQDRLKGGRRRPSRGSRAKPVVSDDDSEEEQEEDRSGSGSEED
T2 sequence (P51531 whole entry): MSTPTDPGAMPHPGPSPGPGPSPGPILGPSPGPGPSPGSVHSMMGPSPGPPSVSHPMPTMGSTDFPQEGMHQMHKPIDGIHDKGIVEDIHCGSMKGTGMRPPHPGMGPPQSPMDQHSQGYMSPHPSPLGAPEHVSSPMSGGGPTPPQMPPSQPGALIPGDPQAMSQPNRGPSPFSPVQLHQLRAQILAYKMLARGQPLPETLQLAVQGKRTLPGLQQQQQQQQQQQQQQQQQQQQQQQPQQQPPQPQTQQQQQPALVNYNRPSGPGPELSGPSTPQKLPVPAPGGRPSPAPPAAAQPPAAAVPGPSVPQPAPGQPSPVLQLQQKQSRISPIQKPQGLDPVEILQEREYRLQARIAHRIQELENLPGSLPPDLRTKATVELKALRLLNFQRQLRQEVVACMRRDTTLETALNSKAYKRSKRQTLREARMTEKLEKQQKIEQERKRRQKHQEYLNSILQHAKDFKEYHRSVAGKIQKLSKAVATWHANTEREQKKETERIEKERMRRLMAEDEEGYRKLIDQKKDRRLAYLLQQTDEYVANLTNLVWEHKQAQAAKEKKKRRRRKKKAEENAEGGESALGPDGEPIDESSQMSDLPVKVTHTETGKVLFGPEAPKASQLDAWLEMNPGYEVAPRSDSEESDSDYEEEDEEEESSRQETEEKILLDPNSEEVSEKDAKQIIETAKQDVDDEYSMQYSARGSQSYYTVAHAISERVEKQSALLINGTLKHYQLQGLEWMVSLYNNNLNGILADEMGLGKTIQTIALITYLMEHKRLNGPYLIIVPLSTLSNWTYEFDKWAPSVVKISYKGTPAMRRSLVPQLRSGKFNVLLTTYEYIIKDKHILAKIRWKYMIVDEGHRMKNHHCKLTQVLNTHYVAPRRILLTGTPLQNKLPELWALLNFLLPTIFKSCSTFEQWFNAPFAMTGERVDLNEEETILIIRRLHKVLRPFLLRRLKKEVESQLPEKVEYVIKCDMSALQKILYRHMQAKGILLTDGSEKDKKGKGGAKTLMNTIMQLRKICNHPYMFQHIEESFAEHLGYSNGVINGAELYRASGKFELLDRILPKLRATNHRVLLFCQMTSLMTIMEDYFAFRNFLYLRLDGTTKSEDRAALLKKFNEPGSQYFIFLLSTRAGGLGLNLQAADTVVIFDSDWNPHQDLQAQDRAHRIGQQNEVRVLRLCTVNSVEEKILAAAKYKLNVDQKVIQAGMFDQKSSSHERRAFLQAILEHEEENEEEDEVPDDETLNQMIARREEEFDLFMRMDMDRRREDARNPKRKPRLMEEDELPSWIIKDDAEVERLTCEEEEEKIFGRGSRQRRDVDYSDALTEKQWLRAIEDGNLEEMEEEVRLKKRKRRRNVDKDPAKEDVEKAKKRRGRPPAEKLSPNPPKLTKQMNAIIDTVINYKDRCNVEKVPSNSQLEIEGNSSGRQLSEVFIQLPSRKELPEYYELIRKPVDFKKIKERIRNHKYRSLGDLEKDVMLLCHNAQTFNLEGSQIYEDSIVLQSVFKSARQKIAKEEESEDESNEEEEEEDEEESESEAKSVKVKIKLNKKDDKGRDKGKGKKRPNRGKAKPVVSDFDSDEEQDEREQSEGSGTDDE

With `Cc1ncsc1-c1ccc([C@H](C)NC(=O)[C@@H]2C[C@@H](O)CN2C(=O)[C@@H](NC(=O)CCCCCCCCCCCCCC(=O)NCc2ccc(CCOc3cc(-c4ccccc4O)nnc3N)cc2)C(C)C)cc1` [Compound 246, N1-(4-(2-((3-amino-6-(2-hydroxyphenyl)pyridazin-4-yl)oxy)ethyl)benzyl)-N15-((S)-1-((2S,4R)-4-hydroxy-2-(((S)-1-(4-(4-methylthiazol-5-yl)phenyl)ethyl)carbamoyl)pyrrolidin-1-yl)-3-methyl-1-oxobutan-2-yl)pentadecanediamide], at HiBit-BRG1, the DC50 was more than 1000 nM and the Dmax is less than 50%. In addition, on HiBiT-BRM, the “BRM HiBit Degradation Maximum (%)” value was “A (“A” indicates maximum degradation ≥75%)” and the DC50 is more than 10 nM.
With `Nc1nnc(-c2ccccc2O)cc1OCCc1ccc(CNC(=O)CCOCCOCCNc2ccc3c(c2)C(=O)N(C2CCC(=O)NC2=O)C3=O)cc1` (centres unmarked) [Compound 70, N-[[4-(2-[[3-amino-6-(2-hydroxyphenyl)pyridazin-4-yl]oxy]ethyl)phenyl]methyl]-3-[2-(2-[[2-(2,6-dioxopiperidin-3-yl)-1,3-dioxoisoindol-5-yl]amino]ethoxy)ethoxy]propanamide], at HiBit-BRG1, the DC50 is more than 1000 nM and the Dmax is less than 50%. Also, at HiBiT-BRM, the “BRM HiBit Degradation Maximum (%)” value was “C (“C” indicates maximum degradation <50%)” and the DC50 was more than 1000 nM.
On to `Cc1ncsc1-c1ccc([C@H](C)NC(=O)[C@@H]2C[C@@H](O)CN2C(=O)[C@@H](NC(=O)CCN2C[C@H]3CN(CCC(=O)NCc4ccc(CCOc5cc(-c6ccccc6O)nnc5N)cc4)C[C@H]3C2)C(C)(C)C)cc1` [Compound 259, (2S,4R)-1-((2S)-2-(3-(5-(3-((4-(2-((3-amino-6-(2-hydroxyphenyl)pyridazin-4-yl)oxy)ethyl)benzyl)amino)-3-oxopropyl)hexahydropyrrolo[3,4-c]pyrrol-2(1H)-yl)propanamido)-3,3-dimethylbutanoyl)-4-hydroxy-N-((S)-1-(4-(4-methylthiazol-5-yl)phenyl)ethyl)pyrrolidine-2-carboxamide], for which, at HiBit-BRG1, the DC50 was more than 1000 nM and the Dmax was less than 50%. Moreover, at HiBiT-BRM, the “BRM HiBit Degradation Maximum (%)” value is recorded as “C (“C” indicates maximum degradation <50%)” and the DC50 was more than 1000 nM.
Turning to `Cc1ncsc1-c1ccc(CNC(=O)[C@@H]2C[C@@H](O)CN2C(=O)[C@@H](NC(=O)CCCCCCCCCCCCCCCC(=O)N(C)Cc2ccc(CCOc3cc(-c4ccccc4O)nnc3N)cc2)C(C)(C)C)cc1` [Compound 228, N1-(4-(2-((3-amino-6-(2-hydroxyphenyl)pyridazin-4-yl)oxy)ethyl)benzyl)-N17-((S)-1-((2S,4R)-4-hydroxy-2-((4-(4-methylthiazol-5-yl)benzyl)carbamoyl)pyrrolidin-1-yl)-3,3-dimethyl-1-oxobutan-2-yl)-N1-methylheptadecanediamide], at HiBit-BRG1, the DC50 was more than 100 nM and the Dmax is more than 75%. Moreover, at HiBiT-BRM, the “BRM HiBit Degradation Maximum (%)” value is reported as “A (“A” indicates maximum degradation ≥75%)” and the DC50 was more than 100 nM.
As for `Cc1ncsc1-c1ccc(CNC(=O)[C@@H]2C[C@@H](O)CN2C(=O)[C@@H](NC(=O)CCCCCCCCCNC(=O)c2ccc(CCN(C)c3cc(-c4ccccc4O)nnc3N)cc2)C(C)(C)C)cc1` [Compound 20, (2S,4R)-1-[(2S)-2-(10-[[4-(2-[[3-amino-6-(2-hydroxyphenyl)pyridazin-4-yl](methyl)amino]ethyl)phenyl]formamido]decanamido)-3,3-dimethylbutanoyl]-4-hydroxy-N-[[4-(4-methyl-1,3-thiazol-5-yl)phenyl]methyl]pyrrolidine-2-carboxamide], on HiBit-BRG1, the DC50 was more than 100 nM and the Dmax was more than 75%. For the same compound, at HiBiT-BRM, the “BRM HiBit Degradation Maximum (%)” value is on record as “A (“A” indicates maximum degradation ≥75%)” and the DC50 was more than 10 nM.
Take `Nc1nnc(-c2ccccc2O)cc1OCCc1ccc(C(=O)NCCCCCCCCC(=O)NCc2ccc(S(=O)(=O)Nc3cccc4c(Cl)c[nH]c34)cc2)cc1` [Compound 23, 9-[[4-(2-[[3-amino-6-(2-hydroxyphenyl)pyridazin-4-yl]oxy]ethyl)phenyl]formamido]-N-([4-[(3-chloro-1H-indol-7-yl)sulfamoyl]phenyl]methyl)nonanamide]: at HiBit-BRG1, the DC50 was more than 1000 nM and the Dmax was less than 50%. Further, on HiBiT-BRM, the “BRM HiBit Degradation Maximum (%)” value is listed as “C (“C” indicates maximum degradation <50%)” and the DC50 is more than 1000 nM.
`Nc1nnc(-c2ccccc2O)cc1OCCc1ccc(CNC(=O)CCCCOc2ccc3c(c2)C(=O)N(C2CCC(=O)NC2=O)C3)cc1` (centres unmarked) [Compound 128, N-(4-(2-((3-amino-6-(2-hydroxyphenyl)pyridazin-4-yl)oxy)ethyl)benzyl)-5-((2-(2,6-dioxopiperidin-3-yl)-3-oxoisoindolin-5-yl)oxy)pentanamide]: the DC50 at HiBit-BRG1 was more than 1000 nM. Moreover, on HiBiT-BRM, the “BRM HiBit Degradation Maximum (%)” value is listed as “C (“C” indicates maximum degradation <50%)” and the DC50 was more than 1000 nM.
Consider `Cc1ncsc1-c1ccc(CNC(=O)[C@@H]2C[C@@H](O)CN2C(=O)[C@@H](NC(=O)CN2CCC(OC3CCN(CCC(=O)NCc4ccc(CCOc5cc(-c6ccccc6O)nnc5N)cc4)CC3)CC2)C(C)(C)C)cc1` [Compound 244, (2S,4R)-1-((S)-2-(2-(4-((1-(3-((4-(2-((3-amino-6-(2-hydroxyphenyl)pyridazin-4-yl)oxy)ethyl)benzyl)amino)-3-oxopropyl)piperidin-4-yl)oxy)piperidin-1-yl)acetamido)-3,3-dimethylbutanoyl)-4-hydroxy-N-(4-(4-methylthiazol-5-yl)benzyl)pyrrolidine-2-carboxamide], for which, on HiBit-BRG1, the DC50 was more than 1000 nM and the Dmax was less than 50%. In addition, at HiBiT-BRM, the “BRM HiBit Degradation Maximum (%)” value was “A (“A” indicates maximum degradation ≥75%)” and the DC50 was more than 1000 nM.
Consider `Nc1nnc(-c2ccccc2O)cc1OCCc1ccc(CNC(=O)CCCCOc2ccc3c(c2)CN(C2CCC(=O)NC2=O)C3=O)cc1` (centres unmarked) [Compound 129, N-(4-(2-((3-amino-6-(2-hydroxyphenyl)pyridazin-4-yl)oxy)ethyl)benzyl)-5-((2-(2,6-dioxopiperidin-3-yl)-1-oxoisoindolin-5-yl)oxy)pentanamide], for which, at HiBit-BRG1, the DC50 is more than 1000 nM. Moreover, at HiBiT-BRM, the “BRM HiBit Degradation Maximum (%)” value was “C (“C” indicates maximum degradation <50%)” and the DC50 is more than 1000 nM.
As to `Cc1ncsc1-c1ccc(CNC(=O)[C@@H]2C[C@@H](O)CN2C(=O)[C@@H](NC(=O)COCC(=O)NCc2ccc(CCOc3cc(-c4ccccc4O)nnc3N)cc2)C(C)(C)C)cc1` [Compound 165, (2S,4R)-1-((S)-2-(2-(2-((4-(2-((3-amino-6-(2-hydroxyphenyl)pyridazin-4-yl)oxy)ethyl)benzyl)amino)-2-oxoethoxy)acetamido)-3,3-dimethylbutanoyl)-4-hydroxy-N-(4-(4-methylthiazol-5-yl)benzyl)pyrrolidine-2-carboxamide], at HiBit-BRG1, the DC50 was more than 1000 nM and the Dmax was less than 50%. On HiBiT-BRM, the “BRM HiBit Degradation Maximum (%)” value is “A (“A” indicates maximum degradation ≥75%)” and the DC50 was more than 1000 nM.
As for `Cc1ncsc1-c1ccc(CNC(=O)[C@@H]2C[C@@H](O)CN2C(=O)[C@@H](NC(=O)CCC(=O)NCc2ccc(CCOc3cc(-c4ccccc4O)nnc3N)cc2)C(C)(C)C)cc1` [Compound 29, N′-[[4-(2-[[3-amino-6-(2-hydroxyphenyl)pyridazin-4-yl]oxy]ethyl)phenyl]methyl]-N-[(2S)-1-[(2S,4R)-4-hydroxy-2-([[4-(4-methyl-1,3-thiazol-5-yl)phenyl]methyl]carbamoyl)pyrrolidin-1-yl]-3,3-dimethyl-1-oxobutan-2-yl]succinamide], at HiBit-BRG1, the DC50 is more than 1000 nM and the Dmax was less than 50%. Moreover, on HiBiT-BRM, the “BRM HiBit Degradation Maximum (%)” value was “B (“B” indicates maximum degradation ≥50%)” and the DC50 is more than 1000 nM.
For the compound `Nc1nnc(-c2ccccc2O)cc1OCCc1ccc(C(=O)NCCCC(=O)NCc2ccc(S(=O)(=O)Nc3cccc4c(Cl)c[nH]c34)cc2)cc1` [Compound 16, 4-[[4-(2-[[3-amino-6-(2-hydroxyphenyl)pyridazin-4-yl]oxy]ethyl)phenyl]formamido]-N-([4-[(3-chloro-1H-indol-7-yl)sulfamoyl]phenyl]methyl)butanamide], on HiBit-BRG1, the DC50 was more than 1000 nM and the Dmax is less than 50%. Moreover, on HiBiT-BRM, the “BRM HiBit Degradation Maximum (%)” value was “C (“C” indicates maximum degradation <50%)” and the DC50 was more than 1000 nM.
Consider `Cc1ncsc1-c1ccc(CNC(=O)[C@@H]2C[C@@H](O)CN2C(=O)[C@@H](NC(=O)CCCCN2CCN(CCC(=O)NCc3ccc(CCOc4cc(-c5ccccc5O)nnc4N)cc3)CC2)C(C)(C)C)cc1` [Compound 260, (2S,4R)-1-((S)-2-(5-(4-(3-((4-(2-((3-amino-6-(2-hydroxyphenyl)pyridazin-4-yl)oxy)ethyl)benzyl)amino)-3-oxopropyl)piperazin-1-yl)pentanamido)-3,3-dimethylbutanoyl)-4-hydroxy-N-(4-(4-methylthiazol-5-yl)benzyl)pyrrolidine-2-carboxamide], for which, at HiBit-BRG1, the DC50 is more than 1000 nM and the Dmax is less than 50%. Also, on HiBiT-BRM, the “BRM HiBit Degradation Maximum (%)” value is recorded as “C (“C” indicates maximum degradation <50%)” and the DC50 was more than 1000 nM.
